Tests used:
HCT-15 [1] = tested on: HCT-15; parameters: method as in https://dtp.cancer.gov/dtpstandard/dwindex/index.jsp; conditions: reference drugs, ref https://dtp.cancer.gov/dtpstandard/dwindex/index.jsp; cited from earlier work
A549/ATCC [2] = tested on: A549/ATCC; parameters: method as in https://dtp.cancer.gov/dtpstandard/dwindex/index.jsp; conditions: reference drugs, ref https://dtp.cancer.gov/dtpstandard/dwindex/index.jsp; cited from earlier work
MDA-MB-435 = tested on: MDA-MB-435; parameters: method as in https://dtp.cancer.gov/dtpstandard/dwindex/index.jsp; conditions: reference drugs, ref https://dtp.cancer.gov/dtpstandard/dwindex/index.jsp; cited from earlier work
LOX IMVI = tested on: LOX IMVI; parameters: method as in https://dtp.cancer.gov/dtpstandard/dwindex/index.jsp; conditions: reference drugs, ref https://dtp.cancer.gov/dtpstandard/dwindex/index.jsp; cited from earlier work
OVCAR-3 = tested on: OVCAR-3; parameters: method as in https://dtp.cancer.gov/dtpstandard/dwindex/index.jsp; conditions: reference drugs, ref https://dtp.cancer.gov/dtpstandard/dwindex/index.jsp; cited from earlier work
NCI-H460 = tested on: NCI-H460; parameters: method as in https://dtp.cancer.gov/dtpstandard/dwindex/index.jsp; conditions: reference drugs, ref https://dtp.cancer.gov/dtpstandard/dwindex/index.jsp; cited from earlier work
IGROV1 = tested on: IGROV1; parameters: method as in https://dtp.cancer.gov/dtpstandard/dwindex/index.jsp; conditions: reference drugs, ref https://dtp.cancer.gov/dtpstandard/dwindex/index.jsp; cited from earlier work
UACC-62 = tested on: UACC-62; parameters: method as in https://dtp.cancer.gov/dtpstandard/dwindex/index.jsp; conditions: reference drugs, ref https://dtp.cancer.gov/dtpstandard/dwindex/index.jsp; cited from earlier work
PC-3 = tested on: PC-3; parameters: method as in https://dtp.cancer.gov/dtpstandard/dwindex/index.jsp; conditions: reference drugs, ref https://dtp.cancer.gov/dtpstandard/dwindex/index.jsp; cited from earlier work
HL-60(TB) = tested on: HL-60(TB); parameters: method as in https://dtp.cancer.gov/dtpstandard/dwindex/index.jsp; conditions: reference drugs, ref https://dtp.cancer.gov/dtpstandard/dwindex/index.jsp; cited from earlier work
SN12C = tested on: SN12C; parameters: method as in https://dtp.cancer.gov/dtpstandard/dwindex/index.jsp; conditions: reference drugs, ref https://dtp.cancer.gov/dtpstandard/dwindex/index.jsp; cited from earlier work
HS 578 T [3] = tested on: HS 578 T; parameters: method as in https://dtp.cancer.gov/dtpstandard/dwindex/index.jsp; conditions: reference drugs, ref https://dtp.cancer.gov/dtpstandard/dwindex/index.jsp; cited from earlier work
MALME-3M = tested on: MALME-3M; parameters: method as in https://dtp.cancer.gov/dtpstandard/dwindex/index.jsp; conditions: reference drugs, ref https://dtp.cancer.gov/dtpstandard/dwindex/index.jsp; cited from earlier work
[4] = tested on: colon cancer tumour cell lines; conditions: cited from earlier work; for GI50: read-out: GI50 (subpanel average), reference drugs, ref https://dtp.cancer.gov/dtpstandard/dwindex/index.jsp; for CC50: read-out: LC50 (subpanel average), reference drugs, ref https://dtp.cancer.gov/dtpstandard/dwindex/index.jsp; for TGI (subpanel average): reference drugs, ref https://dtp.cancer.gov/dtpstandard/dwindex/index.jsp
[5] = tested on: prostate cancer tumour cell lines; conditions: cited from earlier work; for GI50: read-out: GI50 (subpanel average), reference drugs, ref https://dtp.cancer.gov/dtpstandard/dwindex/index.jsp; for CC50: read-out: LC50 (subpanel average), reference drugs, ref https://dtp.cancer.gov/dtpstandard/dwindex/index.jsp; for TGI (subpanel average): reference drugs, ref https://dtp.cancer.gov/dtpstandard/dwindex/index.jsp
[6] = tested on: NSC lung cancer tumour cell lines; conditions: cited from earlier work; for CC50: read-out: LC50 (subpanel average), reference drugs, ref https://dtp.cancer.gov/dtpstandard/dwindex/index.jsp; for TGI (subpanel average): reference drugs, ref https://dtp.cancer.gov/dtpstandard/dwindex/index.jsp; for GI50: read-out: GI50 (subpanel average), reference drugs, ref https://dtp.cancer.gov/dtpstandard/dwindex/index.jsp
HCT-15 [7] = experiment: NCI antitumor screen (SRB); format: cell-based; conditions: Homo sapiens, one dose 10 µM, read-out: Growth inhibition percentage (GI%)
CCRF-CEM = experiment: NCI antitumor screen (SRB); format: cell-based; conditions: Homo sapiens, one dose 10 µM, read-out: Growth inhibition percentage (GI%)
ACHN = experiment: NCI antitumor screen (SRB); format: cell-based; conditions: Homo sapiens, one dose 10 µM, read-out: Growth inhibition percentage (GI%)
HS 578 T [8] = experiment: NCI antitumor screen (SRB); format: cell-based; conditions: Homo sapiens, one dose 10 µM, read-out: Growth inhibition percentage (GI%)
UO-31 = experiment: NCI antitumor screen (SRB); format: cell-based, human; conditions: Homo sapiens; UO-31; one dose 10 µM; read-out: Growth inhibition percentage (GI%)
BT-549 = experiment: NCI antitumor screen (SRB); format: cell-based; conditions: Homo sapiens, one dose 10 µM, read-out: Growth inhibition percentage (GI%)
NCI-H522 = experiment: NCI antitumor screen (SRB); format: cell-based; conditions: Homo sapiens; NCI-H522; one dose 10 µM; read-out: Growth inhibition percentage (GI%)
DU-145 = experiment: NCI antitumor screen (SRB); format: cell-based; conditions: Homo sapiens, one dose 10 µM, read-out: Growth inhibition percentage (GI%)
MCF7 = experiment: NCI antitumor screen (SRB); format: cell-based; conditions: Homo sapiens, one dose 10 µM, read-out: Growth inhibition percentage (GI%)
KM12 = experiment: NCI antitumor screen (SRB); format: cell-based; conditions: Homo sapiens, one dose 10 µM, read-out: Growth inhibition percentage (GI%)
786-0 = experiment: NCI antitumor screen (SRB); format: cell-based; conditions: Homo sapiens, one dose 10 µM, read-out: Growth inhibition percentage (GI%)
NCI-H322M = experiment: NCI antitumor screen (SRB); format: cell-based; conditions: Homo sapiens, one dose 10 µM, read-out: Growth inhibition percentage (GI%)
A549/ATCC [9] = experiment: NCI antitumor screen (SRB); format: cell-based; conditions: Homo sapiens, one dose 10 µM, read-out: Growth inhibition percentage (GI%)

Structure (SMILES)	GI50 (HCT-15 [1])	GI50 (A549/ATCC [2])	GI50 (MDA-MB-435)	GI50 (LOX IMVI)	GI50 (OVCAR-3)	GI50 (NCI-H460)	GI50 (IGROV1)	GI50 (UACC-62)	GI50 (PC-3)	GI50 (HL-60(TB))	GI50 (SN12C)	GI50 (HS 578 T [3])	GI50 (MALME-3M)	GI50 [4]	CC50 [4]	TGI (subpanel average) [4]	GI50 [5]	CC50 [5]	TGI (subpanel average) [5]	TGI (subpanel average) [6]	other results
CS(=O)(=O)c1ccc(C(=O)Nc2ccc(Cl)c(-c3ccccn3)c2)c(Cl)c1 [Vismodegib, vismodegib]	31.6 µM	39.8 µM	31.6 µM	39.8 µM	50.1 µM	39.8 µM	100 µM	31.6 µM	25.1 µM	31.6 µM	39.8 µM	79.4 µM	39.8 µM	–	–	–	–	–	–	–	–
CNC(=O)c1cc(Oc2ccc(NC(=O)Nc3ccc(Cl)c(C(F)(F)F)c3)cc2)ccn1 [Sorafenib, sorafenib]	2.51 µM	3.16 µM	–	–	3.16 µM	2.51 µM	2.51 µM	–	1.99 µM	–	2.51 µM	–	1.99 µM	2.19 µM	38.1 µM	7.94 µM	2.58 µM	69.9 µM	10.27 µM	7.99 µM	CC50 [6]: 49.1 µM
O=c1[nH]cc(F)c(=O)[nH]1 [Compound 5-Fu, 5-fluorouracil, reference compound]	–	–	–	–	–	–	–	–	–	–	–	–	–	0.27 µM	89.3 µM	51.41 µM	1.46 µM	> 100 µM	c (Compounds showed values ≥ 100 µM)	80.45 µM	inhibition at 10 µM (HCT-15 [7]): 73.5%; inhibition at 10 µM (CCRF-CEM): 42.9%; inhibition at 10 µM (ACHN): 60.7%; inhibition at 10 µM (HS 578 T [8]): > 100%; inhibition at 10 µM (UO-31): 58.7%; inhibition at 10 µM (BT-549): 62.2%; inhibition at 10 µM (NCI-H522): 42%; inhibition at 10 µM (DU-145): 64.5%; inhibition at 10 µM (MCF7): 88.5%; inhibition at 10 µM (KM12): 59.3%; inhibition at 10 µM (786-0): 51.3%; inhibition at 10 µM (NCI-H322M): 40.5%; GI50 [6]: 13.6 µM; CC50 [6]: > 100 µM; inhibition at 10 µM (A549/ATCC [9]): 65.8%
COc1cc2ncnc(Nc3ccc(F)c(Cl)c3)c2cc1OCCCN1CCOCC1 [Gefitinib, gefitinib]	3.98 µM	2.51 µM	3.16 µM	3.16 µM	–	3.16 µM	3.16 µM	2 µM	–	1 µM	1.26 µM	7.94 µM	3.98 µM	5.23 µM	–	18.47 µM	3.29 µM	–	31.62 µM	13.86 µM	GI50 [6]: 2.05 µM

From publication PMC8288134, “Synthesis, potential antitumor activity, cell cycle analysis, and multitarget mechanisms of novel hydrazones incorporating a 4-methylsulfonylbenzene scaffold: a molecular docking study” (Journal of Enzyme Inhibition and Medicinal Chemistry, 2021)
